Measured values from PubChem BioAssay AID1919000 (Molecular Pharmacology Branch, DTP, NCI, 2023).
Values joined by “and” are separate entries in the source; they are usually repeats but may differ in a detail not shown here. Equal values may be shown once.

Tested on: 653999-131-R-J2-PDC complex spheroids, growth % test/control
Assay: Anticancer human tumor 653999-131-R-J2-PDC patient-derived lung adenocarcinoma cell line growth inhibition [AhR]
Details: for viability, T/C: stronger effect = lower value
Source text: Multicellular complex tumor spheroid response to aryl hydrocarbon receptor antagonists in combination with a variety of drugs and investigational agents in selected tumor cell lines
The current study was undertaken to assess response to aryl hydrocarbon receptor antagonists in combination with standard-of-care drugs and investigational agents in solid tumor complex spheroid models. Complex spheroids include a stromal component modeled by human endothelial cells (HUVEC) and fibroblasts modeled by human mesenchymal stem cells (MSCs). The concentration ranges selected for each drug and investigational agent were based upon clinically achievable concentrations if the clinical Cmax of the agent was known.
Compounds. The drugs and investigational agents: BAY 2416964 (NSC825713), GNF351 (NSC835774), CH-223191 (NSC835775), CPI-455 (NSC825282), aza-TdCyd (NSC777586), decitabine (NSC127716), belinostat (NSC758774), entinostat (NSC756642), pevonedistat (NSC761192), tazemetostat (NSC777109), talazoparib (NSC765396), olaparib (NSC753686), selinexor (NSC780203), nedisertib (M3814, NSC802822), bortezomib (NSC756655), venetoclax (NSC766270), doxorubicin (NSC123127), elimusertib (BAY189344, NSC800525), ceralasertib (AZD6738, NSC777638), TAK-243 (NSC785004), alisertib (NSC759677), etoposide (NSC141540), topotecan (NSC609699), eribulin (NSC707389), gemcitabine (NSC613327), carboplatin (NSC241240), cisplatin (NSC119875), and SN-38 (NSC673596) were obtained from the National Cancer Institute (NCI) Developmental Therapeutics Program Chemical Repository (32). The FDA-approved anticancer drug set is available from the Developmental Therapeutics Program at https://dtp.cancer.gov/organization/dscb/obtaining/available plates.htm. […] The stock solutions were prepared in dimethyl sulfoxide (DMSO, Sigma-Aldrich, St. Louis, MO, cat. D2650), except for the platinum compounds which were prepared in saline (Quality Biological, Gaithersburg, MD, cat. 114-055-101), at 800-fold the tested concentration and stored at -70 degrees C prior to their use. All drugs and investigational agents were tested over a range starting from a high concentration at or near the clinical Cmax and decreasing in half-log increments. If the clinical Cmax for an agent had not been determined, the highest concentration tested was 10 microM (Table 1).
Cell Culture. All cells were maintained in an incubator at 37 degrees C and 5% CO2 with 95% humidity. The PDC lines were cultured according to standard operating procedures established by the NCI PDMR (https://pdmr.cancer.gov). Briefly, all PDCs were thawed and cultured in Matrigel-coated flasks prepared with a working solution of 1X Ham's F-12 nutrient mix, without supplementation (Invitrogen, Waltham, MA, cat. 11765054), 100 U/mL penicillin-streptomycin (Invitrogen, cat. 15140122), and 2.5% Matrigel (Corning Inc., Corning, NY, cat. 354248) for the first three passages. All PDCs were cultured in complete DMEM/F-12 media containing advanced DMEM/F-12 (Invitrogen, cat. 12634028), 4.9% defined fetal bovine serum, heat inactivated (HyClone Laboratories Inc., Logan, UT, cat. SH30070.03HI), 389 ng/mL hydrocortisone (Sigma-Aldrich, cat. H4001), 9.7 ng/mL human EGF recombinant protein (Invitrogen, cat. PHG0313), 23.4 microg/mL adenine (Sigma-Aldrich, cat. A2786), 97.3 U/mL penicillin-streptomycin (Invitrogen, cat. 15140122), 1.9 mM L-glutamine (Invitrogen, cat. 25030081), and 9.7 microM Y-27632 dihydrochloride (Tocris Bioscience, Bristol, United Kingdom, cat. 1254). The PDCs were cultured in complete DMEM/F12 media without 10 microM Y-27632 dihydrochloride for at least two passages prior to the screen. The established cell lines NCI-H1341 and […] were cultured in DMEM/F-12, HEPES (Invitrogen, cat. 11330032), 5% defined fetal bovine serum (HyClone Laboratories Inc., cat. SH30070.03), ITS premix universal culture supplement [insulin (5 microg/mL), transferrin (5 microg/mL), and selenious acid (5 ng/mL)] […]

[1] = curve of first compound, second compound 0.1 µM
[2] = curve of first compound, second compound 0.316 µM
[3] = curve of first compound, second compound 1 µM
[4] = curve of first compound, second compound 3.16 µM
[5] = curve of first compound, second compound 10 µM
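Note: spheroids exposed to agents for seven days.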

Work on `O=C(C=Cn1cnc(-c2cc(C(F)(F)F)cc(C(F)(F)F)c2)n1)NNc1cnccn1` + Cc1ccccc1N=Nc1ccc(NC(=O)c2ccnn2C)c(C)c1 yielded an IC50 [1] of 839 nM, an IC50 [2] of 586 nM and an IC50 [3] of 864 nM. The IC50 [4] was 1960 nM, the IC50 [5] was over 3000 nM and the viability, T/C (second compound 0.1 µM, first compound 0.00949 µM) was 106%. For the same compound, the viability, T/C (second compound 0.1 µM, first compound 0.03 µM) was 76.8%, the viability, T/C (second compound 0.1 µM, first compound 0.0949 µM) was 72.7% and the viability, T/C (second compound 0.1 µM, first compound 0.3 µM) was 49.5%. It also gave a viability, T/C (second compound 0.1 µM, first compound 0.949 µM) of 48.9%, a viability, T/C (second compound 0.1 µM, first compound 3 µM) of 48% and a viability, T/C (second compound 0.316 µM, first compound 0.00949 µM) of 91.8%. The viability, T/C (second compound 0.316 µM, first compound 0.03 µM) was 93.3%, the viability, T/C (second compound 0.316 µM, first compound 0.0949 µM) was 70.5% and the viability, T/C (second compound 0.316 µM, first compound 0.3 µM) was 55.8%. The viability, T/C (second compound 0.316 µM, first compound 0.949 µM) was 45.3%, the viability, T/C (second compound 0.316 µM, first compound 3 µM) was 47.9% and the viability, T/C (second compound 1 µM, first compound 0.00949 µM) was 94.4%. It also gave a viability, T/C (second compound 1 µM, first compound 0.03 µM) of 91.1%, a viability, T/C (second compound 1 µM, first compound 0.0949 µM) of 66% and a viability, T/C (second compound 1 µM, first compound 0.3 µM) of 56.9%. It also gave a viability, T/C (second compound 1 µM, first compound 0.949 µM) of 49.3%, a viability, T/C (second compound 1 µM, first compound 3 µM) of 47.4% and a viability, T/C (second compound 3.16 µM, first compound 0.00949 µM) of 105%. It also gave a viability, T/C (second compound 3.16 µM, first compound 0.03 µM) of 81.1%, a viability, T/C (second compound 3.16 µM, first compound 0.0949 µM) of 75.9% and a viability, T/C (second compound 3.16 µM, first compound 0.3 µM) of 58.4%. It also gave a viability, T/C (second compound 3.16 µM, first compound 0.949 µM) of 55.7%, a viability, T/C (second compound 3.16 µM, first compound 3 µM) of 47% and a viability, T/C (second compound 10 µM, first compound 0.00949 µM) of 85.7%. The viability, T/C (second compound 10 µM, first compound 0.03 µM) was 83.8%, the viability, T/C (second compound 10 µM, first compound 0.0949 µM) was 66.7% and the viability, T/C (second compound 10 µM, first compound 0.3 µM) was 53.6%. For the same compound, the viability, T/C (second compound 10 µM, first compound 0.949 µM) was 52% and the viability, T/C (second compound 10 µM, first compound 3 µM) was 49%.
With `COc1cccc2c1C(=O)c1c(O)c3c(c(O)c1C2=O)CC(O)(C(=O)CO)CC3OC1CC(N)C(O)C(C)O1` (configuration not stated) + CC(CO)NC(=O)c1cc(-c2ccc(Cl)cc2)nn(-c2cnn(C)c2)c1=O the IC50 [1] was 136 nM, the IC50 [2] was 124 nM and the IC50 [3] was 144 nM. For the same compound, the IC50 [4] was 167 nM, the IC50 [5] was 131 nM and the viability, T/C (second compound 0.1 µM, first compound 0.0316 µM) was 60.7%. It also gave a viability, T/C (second compound 0.1 µM, first compound 0.1 µM) of 53%, a viability, T/C (second compound 0.1 µM, first compound 0.316 µM) of 35% and a viability, T/C (second compound 0.1 µM, first compound 1 µM) of 11.7%. The viability, T/C (second compound 0.1 µM, first compound 3.16 µM) was 6.06%, the viability, T/C (second compound 0.1 µM, first compound 10 µM) was 19.9% and the viability, T/C (second compound 0.316 µM, first compound 0.0316 µM) was 62.3%. For the same compound, the viability, T/C (second compound 0.316 µM, first compound 0.1 µM) was 52.8%, the viability, T/C (second compound 0.316 µM, first compound 0.316 µM) was 31.1% and the viability, T/C (second compound 0.316 µM, first compound 1 µM) was 10.4%. It also gave a viability, T/C (second compound 0.316 µM, first compound 3.16 µM) of 4.91%, a viability, T/C (second compound 0.316 µM, first compound 10 µM) of 20.9% and a viability, T/C (second compound 1 µM, first compound 0.0316 µM) of 71%. The viability, T/C (second compound 1 µM, first compound 0.1 µM) was 57%, the viability, T/C (second compound 1 µM, first compound 0.316 µM) was 33% and the viability, T/C (second compound 1 µM, first compound 1 µM) was 11.2%. For the same compound, the viability, T/C (second compound 1 µM, first compound 3.16 µM) was 4.47%, the viability, T/C (second compound 1 µM, first compound 10 µM) was 18.9% and the viability, T/C (second compound 3.16 µM, first compound 0.0316 µM) was 62.9%. The viability, T/C (second compound 3.16 µM, first compound 0.1 µM) was 49.5%, the viability, T/C (second compound 3.16 µM, first compound 0.316 µM) was 42.3% and the viability, T/C (second compound 3.16 µM, first compound 1 µM) was 6.87%. The viability, T/C (second compound 3.16 µM, first compound 3.16 µM) was 7.41%, the viability, T/C (second compound 3.16 µM, first compound 10 µM) was 20.7% and the viability, T/C (second compound 10 µM, first compound 0.0316 µM) was 73.4%. For the same compound, the viability, T/C (second compound 10 µM, first compound 0.1 µM) was 54.6%, the viability, T/C (second compound 10 µM, first compound 0.316 µM) was 31.8% and the viability, T/C (second compound 10 µM, first compound 1 µM) was 5.67%. It also gave a viability, T/C (second compound 10 µM, first compound 3.16 µM) of 9.25% and a viability, T/C (second compound 10 µM, first compound 10 µM) of 21.4%.
For `CC[C@@]1(O)C(=O)OCc2c1cc1n(c2=O)Cc2cc3c(CN(C)C)c(O)ccc3nc2-1`, the viability, T/C (compound 0.000316 µM) was 118% and 95.5% and 101%, the viability, T/C (compound 0.001 µM) was 100% and 95.1% and 108% and the viability, T/C (compound 0.00316 µM) was 91.8% and 99.8% and 102%. The viability, T/C (compound 0.01 µM) was 80.7% and 79.8% and 91.8%, the viability, T/C (compound 0.0316 µM) was 69.5% and 61.3% and 63.9% and the viability, T/C (compound 0.1 µM) was 44.3% and 36.5% and 48%. The IC50 (curve of compound) was 84.8 nM and 51.8 nM and 86.6 nM.
